From patent publication US20230019491A1, “PYRIMIDINE TBK/IKKe INHIBITOR COMPOUNDS AND USES THEREOF” (Merck Patent GmbH, priority 2017, published 2023)

Key:
TBK1 = biological target: T1, TBK1 (Homo sapiens, UniProt Q9UHD2); assay: TBK biochemical assay; conditions: 10 point 1:4 dose response, 30 uM top concentration, 90 min at 25° C., LabChip EZ Reader II; read-out: TBK1_IC50
T1 sequence (Q9UHD2 1-729): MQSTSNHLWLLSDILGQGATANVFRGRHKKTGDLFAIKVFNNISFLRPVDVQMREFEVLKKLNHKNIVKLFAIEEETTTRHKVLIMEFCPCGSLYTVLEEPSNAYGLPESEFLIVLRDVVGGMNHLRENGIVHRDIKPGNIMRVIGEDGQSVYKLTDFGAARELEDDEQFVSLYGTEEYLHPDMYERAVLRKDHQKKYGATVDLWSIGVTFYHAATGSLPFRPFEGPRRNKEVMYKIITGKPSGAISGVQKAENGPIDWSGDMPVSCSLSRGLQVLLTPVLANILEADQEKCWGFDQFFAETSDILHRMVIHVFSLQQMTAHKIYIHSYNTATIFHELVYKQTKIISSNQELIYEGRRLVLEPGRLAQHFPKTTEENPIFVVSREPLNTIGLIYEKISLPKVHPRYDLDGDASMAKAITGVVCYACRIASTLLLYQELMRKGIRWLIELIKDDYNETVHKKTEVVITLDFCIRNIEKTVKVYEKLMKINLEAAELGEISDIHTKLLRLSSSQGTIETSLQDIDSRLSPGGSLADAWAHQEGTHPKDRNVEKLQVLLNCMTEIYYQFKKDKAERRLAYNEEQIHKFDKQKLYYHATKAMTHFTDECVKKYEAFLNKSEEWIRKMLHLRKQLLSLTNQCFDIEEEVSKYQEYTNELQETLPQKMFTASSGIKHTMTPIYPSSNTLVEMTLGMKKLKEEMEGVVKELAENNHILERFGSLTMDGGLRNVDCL
Summary of the method: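 Read-out was a Caliper LabChip mobility-shift assay, run after a 90-min, 25 °C reaction of TBK1 with substrate and compounds, quenched with stop buffer. Control wells received staurosporine at 10 uM final.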

IKKε = biological target: T2, IKKε (Homo sapiens, UniProt Q14164); assay: IKKε biochemical assay; conditions: 10 point 1:4 dose response, 30 uM top concentration, 90 min at 25° C., LabChip EZ Reader II; read-out: IKKε_IC50
T2 sequence (Q14164 1-716): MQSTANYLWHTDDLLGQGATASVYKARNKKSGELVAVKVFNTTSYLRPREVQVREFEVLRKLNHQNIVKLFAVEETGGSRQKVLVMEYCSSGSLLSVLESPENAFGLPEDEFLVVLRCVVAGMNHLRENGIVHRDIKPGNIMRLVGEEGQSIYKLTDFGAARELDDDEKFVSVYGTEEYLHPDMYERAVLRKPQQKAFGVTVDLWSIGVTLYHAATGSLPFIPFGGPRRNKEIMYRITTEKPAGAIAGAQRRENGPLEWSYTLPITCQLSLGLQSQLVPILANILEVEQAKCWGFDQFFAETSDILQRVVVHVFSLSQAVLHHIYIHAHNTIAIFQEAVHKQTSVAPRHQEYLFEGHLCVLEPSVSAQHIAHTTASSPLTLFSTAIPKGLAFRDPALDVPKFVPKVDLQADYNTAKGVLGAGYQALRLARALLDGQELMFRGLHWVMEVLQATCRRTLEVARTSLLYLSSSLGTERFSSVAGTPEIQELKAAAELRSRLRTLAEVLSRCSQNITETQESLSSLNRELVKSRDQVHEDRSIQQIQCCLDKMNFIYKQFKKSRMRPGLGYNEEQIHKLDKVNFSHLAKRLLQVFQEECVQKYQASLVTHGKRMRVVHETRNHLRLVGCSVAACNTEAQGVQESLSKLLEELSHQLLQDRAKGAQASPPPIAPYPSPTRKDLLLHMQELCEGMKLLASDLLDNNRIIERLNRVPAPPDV
Summary of the method: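 Mobility-shift LabChip read-out followed a 90 min, 25° C. reaction of IKKε with substrate and test compound, with DMSO held at 1% final. Reactions were ended with stop buffer. Wells with 10 uM final staurosporine defined complete inhibition, and DMSO-only wells the uninhibited level.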

Row | Compound | IC50 (TBK1) [nM] | IC50 (IKKε) [nM]
1 | COc1nc(Nc2nccc(-c3ccc(O[C@H]4CCN(C(=O)[C@@H](C)O)C[C@@H]4F)c(C#N)c3)n2)ccc1C1CCN(C2COC2)CC1 [Example 188, 2-[(3S,4S)-3-Fluoro-1-((R)-2-hydroxy-propionyl)-piperidin-4-yloxy]-5-[2-(2-methoxy-1′-oxetan-3-yl-1′,2′,3′,4′,5′,6′-hexahydro-[3,4′]bipyridinyl-6-ylamino)-pyrimidin-4-yl]-benzonitrile] | < 100 | < 100
2 | N#Cc1cc(-c2ccnc(Nc3ccccn3)n2)ccc1OC1CCN(C(=O)[C@@H](O)CO)CC1(F)F (stereo partly drawn) [Example 243, 2-[1-((S)-2,3-Dihydroxy-propionyl)-3,3-difluoro-piperidin-4-yloxy]-5-[2-(pyridin-2-ylamino)-pyrimidin-4-yl]-benzonitrile] | < 100 | < 100
3 | COc1cc(Nc2nccc(-c3ccc(OC4CCN(C(=O)[C@H](C)O)CC4)c(C#N)c3)n2)ncc1N1CCN(C2COC2)CC1 [Example 318, 2-([1-[(2S)-2-hydroxypropanoyl]piperidin-4-yl]oxy)-5-[2-([4-methoxy-5-[4-(oxetan-3-yl)piperazin-1-yl]pyridin-2-yl]amino)pyrimidin-4-yl]benzonitrile] | 100 to 1000 | 100 to 1000
4 | C[C@H](O)C(=O)N1CCC(Oc2ccc(-c3ccnc(Nc4cccc(C5CCN(C(CO)CO)CC5)c4)n3)cc2C#N)C(F)(F)C1 (stereo partly drawn) [Example 157, 2-[3,3-Difluoro-1-((S)-2-hydroxy-propionyl)-piperidin-4-yloxy]-5-(2-{3-[1-(2-hydroxy-1-hydroxymethyl-ethyl)-piperidin-4-yl]-phenylamino}-pyrimidin-4-yl)-benzonitrile] | < 100 | < 100
5 | COc1nc(Nc2nccc(-c3ccc(OC4CCN(C(=O)[C@H](C)O)CC4(F)F)c(C#N)c3)n2)ccc1N1CCN(C2COC2)C[C@@H]1C (stereo partly drawn) [Example 131, 2-[3,3-Difluoro-1-((S)-2-hydroxy-propionyl)-piperidin-4-yloxy]-5-{2-[6-methoxy-5-((S)-2-methyl-4-oxetan-3-yl-piperazin-1-yl)-pyridin-2-ylamino]-pyrimidin-4-yl}-benzonitrile] | < 100 | < 100
6 | COc1nc(Nc2nccc(-c3ccc(OC4CCN(C)CC4)c(C#N)c3)n2)ccc1N1CCN(C)CC1 [Example 88, 5-(2-[[6-methoxy-5-(4-methylpiperazin-1-yl)pyridin-2-yl]amino]pyrimidin-4-yl)-2-[(1-methylpiperidin-4-yl)oxy]benzonitrile] | 100 to 1000 | 100 to 1000
7 | COc1cc(Nc2nccc(-c3ccc(OC4CCOCC4)c(C#N)c3)n2)cnc1C(=O)N(C)C [Example 50, 5-([4-[3-cyano-4-(oxan-4-yloxy)phenyl]pyrimidin-2-yl]amino)-3-methoxy-N,N-dimethylpyridine-2-carboxamide] | < 100 | < 100
8 | COc1nc(Nc2nccc(-c3ccc(OC4CCN(C(=O)[C@@H](C)O)CC4(F)F)c(C#N)c3)n2)ccc1N1CCN(C2COC2)C[C@H]1C (stereo partly drawn) [Example 130, 2-[3,3-Difluoro-1-((R)-2-hydroxy-propionyl)-piperidin-4-yloxy]-5-{2-[6-methoxy-5-((R)-2-methyl-4-oxetan-3-yl-piperazin-1-yl)-pyridin-2-ylamino]-pyrimidin-4-yl}-benzonitrile] | < 100 | < 100
9 | COc1nc(Nc2nccc(-c3ccc(OC4CCN(C(=O)[C@H](C)O)CC4(F)F)c(C#N)c3)n2)ccc1N1CCN(C)CC1 (stereo partly drawn) [Example 107, 2-[3,3-Difluoro-1-((S)-2-hydroxy-propionyl)-piperidin-4-yloxy]-5-{2-[6-methoxy-5-(4-methyl-piperazin-1-yl)-pyridin-2-ylamino]-pyrimidin-4-yl}-benzonitrile] | < 100 | < 100
10 | N#Cc1cc(-c2ccnc(Nc3cccc(C4CCN(C(CO)CO)CC4)c3)n2)ccc1OC1CCNCC1(F)F (stereo not drawn) [Example 156, 2-(3,3-Difluoro-piperidin-4-yloxy)-5-(2-{3-[1-(2-hydroxy-1-hydroxymethyl-ethyl)-piperidin-4-yl]-phenylamino}-pyrimidin-4-yl)-benzonitrile] | < 100 | < 100
11 | C[C@H](O)C(=O)N1CCC(Oc2ccc(-c3ccnc(Nc4ccc(N5CCN(C6COC6)CC5)cc4)n3)nc2C#N)C(F)(F)C1 (stereo partly drawn) [Example 306, 3-([33-difluoro-1-[(2S)-2-hydroxypropanoyl]piperidin-4-yl]oxy)-6-[2-([4-[4-(oxetan-3-yl)piperazin-1-yl]phenyl]amino)pyrimidin-4-yl]pyridine-2-carbonitrile] | < 100 | < 100
12 | COc1nc(Nc2nccc(-c3ccc(OC4CCNCC4(F)F)c(C#N)c3)n2)ccc1C1CCN(C)CC1 (stereo not drawn) [Example 144, 2-(3,3-Difluoro-piperidin-4-yloxy)-5-[2-(2-methoxy-1′-methyl-1′,2′,3′,4′,5′,6′-hexahydro-[3,4′]bipyridinyl-6-ylamino)-pyrimidin-4-yl]-benzonitrile] | < 100 | < 100
13 | COc1nc(Nc2nccc(-c3ccc(OC4CCN(C(=O)[C@H](C)O)CC4(F)F)c(C#N)c3)n2)ccc1C1CCN(C2COC2)CC1 (stereo partly drawn) [Example 152, 2-[3,3-Difluoro-1-((S)-2-hydroxy-propionyl)-piperidin-4-yloxy]-5-[2-(2-methoxy-1′-oxetan-3-yl-1′,2′,3′,4′,5′,6′-hexahydro-[3,4′]bipyridinyl-6-ylamino)-pyrimidin-4-yl]-benzonitrile] | < 100 | < 100
14 | N#Cc1cc(-c2ccnc(Nc3cccc(C4CCN(C5COC5)CC4)c3)n2)ccc1OC1CCN(C(=O)[C@@H](O)CO)CC1(F)F (stereo partly drawn) [Example 276, 2-[1-((S)-2,3-Dihydroxy-propionyl)-3,3-difluoro-piperidin-4-yloxy]-5-{2-[3-(l-oxetan-3-yl-piperidin-4-yl)-phenylamino]-pyrimidin-4-yl}-benzonitrile] | < 100 | < 100
15 | COc1nc(Nc2nccc(-c3ccc(OC4CCNC4)c(C#N)c3)n2)ccc1N1CCN(C2COC2)CC1 (stereo not drawn) [Example 182, 5-[2-([6-methoxy-5-[4-(oxetan-3-yl)piperazin-1-yl]pyridin-2-yl]amino)pyrimidin-4-yl]-2-(pyrrolidin-3-yloxy)benzonitrile] | < 100 | < 100
16 | COc1nc(Nc2nccc(-c3ccc(OC4CCN(C(=O)[C@H](C)O)CC4C)c(C#N)c3)n2)ccc1N1CCN(C2COC2)CC1 (stereo partly drawn) [Example 271, 2-[1-((S)-2-Hydroxy-propionyl)-3-methyl-piperidin-4-yloxy]-5-{2-[6-methoxy-5-(4-oxetan-3-yl-piperazin-1-yl)-pyridin-2-ylamino]-pyrimidin-4-yl}-benzonitrile] | < 100 | < 100
17 | COc1nc(Nc2nccc(-c3ccc(OC4(C)CCN(C(=O)[C@H](C)O)CC4(F)F)c(C#N)c3)n2)ccc1N1CCN(C2COC2)CC1 (stereo partly drawn) [Example 265, 2-[3,3-Difluoro-1-((S)-2-hydroxy-propionyl)-4-methyl-piperidin-4-yloxy]-5-{2-[6-methoxy-5-(4-oxetan-3-yl-piperazin-1-yl)-pyridin-2-ylamino]-pyrimidin-4-yl}-benzonitrile] | < 100 | < 100
18 | C[C@@H](O)C(=O)N1CC(Oc2ccc(-c3ccnc(Nc4ccc(N5CCN(C6COC6)CC5)cc4)n3)cc2C#N)C1 [Example 173, 2-([1-[(2R)-2-hydroxypropanoyl]azetidin-3-yl]oxy)-5-[2-([4-[4-(oxetan-3-yl)piperazin-1-yl]phenyl]amino)pyrimidin-4-yl]benzonitrile] | 100 to 1000 | 100 to 1000
